The values that follow come from US20140056951A1, “METHODS AND COMPOSITIONS FOR TREATING BIOFILMS” (PRESIDENT AND FELLOWS OF HARVARD COLLEGE, priority 2011, published 2014).

Assay [1] deals with B. subtilis strain NCBI3610. Briefly: Biofilm (pellicle) inhibition assay, B. subtilis in liquid biofilm-inducing medium. It counts as cell-based, Bacillus subtilis. The following applies: for minimal effective concentration: Bacillus subtilis, NCBI3610, read-out: MBIC- Minimal Biofilm Inhibitory Concentration; for biofilm-inhibitory activity against B. subtilis: structure-activity; for concentration above which inhibition of biofilm formation is observed: B. subtilis pellicle formation; for inhibition of pellicle formation at 50 μM: cells diluted 1:1000 in biofilm media, final concentration 50 μM. The procedure: Bacillus subtilis strains PY79, 3610 and their derivatives were grown in Luria-Bertani (LB) medium at 37° C. or MSgg medium (1) at 23° C. Solid media contained 1.5% Bacto agar. When appropriate, antibiotics were added at the following concentrations for growth of B. subtilis: 10 μg per ml of tetracycline, and 5 μg per ml of erythromycin, 500 μg per ml of spectinomycin.
B. subtilis strain NCBI3610 was grown at 22° C. in 12-well plates in liquid biofilm-inducing medium for 3 or 8 days. Conditioned medium (500 ml) from an 8-day-old culture was concentrated on the C-18 column and eluted step-wise with methanol. […]
Pellicle formation of strain NCBI 3610 was tested in the presence of the indicated concentrations of norspermidine (FIG. 1D) or spermidine (FIG. 1E).
To identify features of norspermidine important for its biofilm disassembly activity, we tested a library of polyamines in our biofilm inhibition assay (FIGS. 9A, 9B, 10 and Table 2).
The effect of polyamines on pellicle formation by B. subtilis was examined. B. subtilis wild-type cells were grown to a mid-logarithmic phase and diluted 1:1000 in biofilm media applied with each polyamine to the final concentration of 50 μM.
The effect of cyclic polyamines on biofilm formation by B. subtilis was examined. B. subtilis wild-type cells were grown to a mid-logarithmic phase and diluted 1:1000 in biofilm media (18A) or in a medium applied with cyclic compound 1,5,9-Triazacyclododecane to the final concentration of 50 μM (18B).

For assay [2], the system named is B. subtilis wild-type cells. The assay is described as follows: Biofilm formation on solid biofilm medium, B. subtilis. In kind it is cell-based, Bacillus subtilis. The following applies: 1 μl of cells mixed with 1 μl (1 mM) polyamine. On the procedure:
B. subtilis wild-type cells were grown to a mid-logarithmic phase and 1 μl of cells was mixed with 1 μl (1 mM) of each polyamine. The mixture was plated on solid biofilm medium.
B. subtilis wild-type cells were grown to a mid-logarithmic phase and 1 μl of cells was either mixed with PBS (18C) or mixed with 1 μl (1 mM) of each polyamine (18D). The mixture was plated on solid biofilm medium. “3*” refers to 1,5,9-Triazacyclododecane.

In assay [3] the test system is exopolysaccharide and TasA of B. subtilis NCBI 3610. The assay is described as follows: Fluorescence microscopy of matrix components (concanavalin A-Texas Red, TasA-mCherry), B. subtilis. It counts as cell-based, Bacillus subtilis. The following applies: norspermidine 25 μM, spermidine 1 mM. From the text: The cells were washed in PBS and stained for exopolysaccharide with a conjugate of concanavalin A with Texas-Red.
[…] Cells were washed in PBS, and visualized by fluorescence microscopy.
To investigate further, exopolysaccharide was visualized by fluorescence microscopy using a conjugate of the carbohydrate-binding protein concanavalin A with Texas Red (FIG. 5) (McSwain et al., 2005). As evidence of specificity, the conjugate decorated wild-type cells but not cells from a mutant (Aeps) blocked in exopolysaccharide production (FIG. 6A). Indeed, at an exposure at which concanavalin A staining with the wild type strain gave an extremely bright fluorescent signal, little or no signal could be detected for the Aeps mutant, except at long exposures and enhanced brightness (FIG. 6A). Next, we investigated the effects of norspermidine and spermidine. […] Therefore, the difference in the staining was evidently due to differential levels of cell-associated exopolysaccharide. […] Thus, while not being bound to any theory, it is believed that norspermidine disrupts the matrix and by targeting exopolysaccharide.

For assay [4], the system named is exopolysaccharide of S. aureus cells. The assay is described as follows: Fluorescence microscopy of exopolysaccharide staining, S. aureus. In kind it is cell-based, Staphylococcus aureus.
Assay [5] deals with exopolysaccharide of E. coli cells. The assay is described as follows: Fluorescence microscopy of exopolysaccharide staining, E. coli. It counts as cell-based, Escherichia coli. From the text:
In testing E. coli, the biofilm-proficient strain MC4100 was selected because a major component of exopolysacchride is colanic acid (Danese et al., 2000; Price and Raivio, 2009).

The mark [6] stands for this setting: B. subtilis biofilm inhibition assay, library of polyamines.

Regarding `CCCCCCCCCCCCNCCCNCCCNCCCCCCCCCCCC` [Molecule 13, N^1-dodecyl-N^3-(3-(dodecylamino)propyl)propane-1,3-diamine], in assay [1] (setting [6]), the minimal effective concentration is 100 µM. Also, the “biofilm-inhibitory activity against B. subtilis” value (shortened to “biofilm-inhibitory activity”) in assay [1] (library of polyamines) is “active”. For the compound `c1cc2ccc1CNCCCNCCCNCc1ccc(cc1)CNCCCNCCCNC2` [Molecule 12, 3,7,11,18,22,26-Hexaazatricyclo[26.2.2.213,16]tetratriaconta-13,15,28,30,31,33-hexaene], the minimal effective concentration in assay [1] (setting [6]) was found to be 500 µM. Also, in assay [1] (library of polyamines), the “biofilm-inhibitory activity” value is recorded as “active”. In the case of `NCCCCNCCCN` [Molecule 3, spermidine], in assay [1] (setting [6]), the minimal effective concentration was determined as 5000 µM. Consider `Cc1c(Cc2[nH]c(C(=O)OC(C)(C)C)c(C)c2C)[nH]c(Cc2[nH]c(C(=O)OC(C)(C)C)c(C)c2C)c1C` [Molecule 14, di-tert-butyl 5,5′-((3,4-dimethyl-1H-pyrrole-2,5-diyl)bis(methylene))bis(3,4-dimethyl-1H-pyrrole-2-carboxylate)], for which the minimal effective concentration in assay [1] (setting [6]) was 500 to 700 µM. Besides, in assay [1] (library of polyamines), the “biofilm-inhibitory activity” value was “active”. Regarding `CCOC(=O)CCC(=O)CCC(=O)OCC` [Molecule 11, Diethyl 4-oxoheptanedioate], the minimal effective concentration in assay [1] (setting [6]) was over 5000 µM.

For `NCCCNCCCCNCCCN` [Molecule 4, 1,12-diamino-4,9-diazaoctane, reference compound], the minimal effective concentration in assay [1] (setting [6]) is 2500 µM. Take `NCCCN(CCCN)CCCN` [Molecule 21, N^1,N^1-bis(3-aminopropyl)propane-1,3-diamine]: the minimal effective concentration in assay [1] (setting [6]) was found to be 200 µM. In addition, the “biofilm-inhibitory activity” value in assay [1] (library of polyamines) is listed as “did not block activity”.

For the compound `C1COCCN1` [morpholine, reference compound], the “inhibition of pellicle formation at 100 μM” value in assay [1] (NCBI3610 in fresh medium, 100 μM (FIG. 1B)) is “inactive”. With `CN(C)N(CCC(N)=O)CCC(N)=O` [Molecule 16, 3,3′-(2,2-dimethylhydrazine-1,1-diyl)dipropanamide], the minimal effective concentration in assay [1] (setting [6]) was over 5000 µM. As for `CN(CCCN)CCCN` [Molecule 9, (3-aminopropyl)-N^1-methylpropane-1,3-diamine], in assay [1] (setting [6]), the minimal effective concentration is over 5000 µM. `OCCCNCCCO` [Molecule 20, 3,3′-azanediylbis(propan-1-ol)]: in assay [1] (setting [6]), the minimal effective concentration was over 5000 µM. On to `CN(C)CCCNCCCN(C)C` [Molecule 8, N^1-(3-(dimethylamino)propyl)-N^3, N^3-dimethylpropane-1,3-diamine], for which, in assay [1] (setting [6]), the minimal effective concentration was over 5000 µM. In the case of `O=C(NCCCNCCCNC(=O)C(O)C(O)C(O)C(O)CO)C(O)C(O)C(O)C(O)CO` (centres unmarked) [Molecule 17, N,N′-(azanediylbis(propane-3,1-diyl))bis(2,3,4,5,6-pentahydroxyhexanamide)], the minimal effective concentration in assay [1] (setting [6]) was over 5000 µM.

Consider `NCCCCN` [Molecule 5, 1,4-diaminobutane, reference compound], for which the minimal effective concentration in assay [1] (setting [6]) is 2000 to 3000 µM. The same measure, in the same setting: the figure for `NCCCCCN` [Molecule 19, pentane-1,5-diamine, reference compound] is 3000 µM. `CN(C)CCCN(C)CCCN(C)C` [Molecule 7, N^1-(3-(dimethylamino)propyl)-N^1,N^3,N^3-trimethylpropane-1,3-diamine]: in assay [1] (setting [6]), the minimal effective concentration is over 5000 µM. Consider `NNC(=O)Cc1ccc(CC(=O)NN)[nH]1` [Molecule 15, 2,2′-(1H-pyrrole-2,5-diyl)di(acetohydrazide)], for which the minimal effective concentration in assay [1] (setting [6]) was over 5000 µM. Regarding 1,3-diaminopropane [Molecule 6], in assay [1] (setting [6]), the “MBIC- Minimal Biofilm Inhibitory Concentration” value was 2500 to 5000 µM. Moreover, the “concentration above which inhibition of biofilm formation is observed” value in assay [1] was over 5 mM. `NCCCOCCCN` [Molecule 10, 3,3′-oxybis(propan-1-amine)]: the minimal effective concentration in assay [1] (setting [6]) came to 5000 µM. In the case of `C1CNCCCNCCCNC1` [c, 1,5,9-triazacyclododecane], the “inhibition of pellicle formation at 50 μM” value in assay [1] is “inhibits biofilm formation”. For the same compound, in assay [2], the “inhibition of biofilm formation on solid biofilm medium” value is given as “inhibits biofilm formation”. Regarding `NCCCCNCCCN` [Molecule 3, 1,8-diamino-4-azaoctane, reference compound], the “concentration above which inhibition of biofilm formation is observed” value in assay [1] (listed as spermidine) is over 2 mM. The “inhibition of pellicle formation at 50 μM” value in assay [1] was “do not”. In addition, the “pattern of concanavalin A-Texas Red staining of exopolysaccharide” value in assay [3] is recorded as “No such effect”. Besides, the “inhibition of biofilm formation on solid biofilm medium” value in assay [2] was “do not”. Moreover, the “staining of exopolysaccharide, S. aureus cells” value in assay [4] is reported as “not”. Further, the “staining of exopolysaccharide, E. coli cells” value in assay [5] was “not”.
